Laboratory results reported in patent US11479587B2, “Cationic intrinsically disordered antimicrobial peptides” (priority 2016, dated 2022).
Several values for one entry are separate records, joined by “and”; a condition that tells them apart may be missing. Equal entries are not always repeated. No end group written: not given here.

How the values were obtained:
[1] = Cytotoxicity (resazurin) assay
Method: For the cytotoxicity (resazurin) assay, HEK293 cells were counted manually in a Neubauer haemocytometer and plated at a density of 4000 cells/well into each well of the 384-well plates containing the 25×(2 μl) concentrated compounds. The medium used was Dulbecco's modified eagle medium (DMEM) supplemented with 10% foetal bovine serum (FBS). Cells were incubated together with the compounds for 20 h at 37° C., 5% CO2. To measure cytotoxicity, 5 μl (equals 100 μM final) resazurin was added to each well after incubation, and incubated for further 3 h at 37° C. with 5% CO2.
After final incubation fluorescence intensity was measured as F ex 560/10 nm, em 590/10 nm (F560/590) using a Tecan M1000 Pro monochromator plate reader. […] The concentration dependent percentage cytotoxicity was fitted to a dose response function (using Pipeline Pilot) and CC50 values determined.

S. aureus ATCC 6538 = experiment: CFU-assay, S. aureus-cidal activity; format: cell-based, Staphylococcus aureus
Method: (§1) Thus, within the present invention, the antimicrobial activity is generally measured in nutrient deficient 10 mM sodium phosphate buffer pH 5.5, containing 0.25% glucose, using the CFU-assay according to Steinberg and Lehrer, 1997 (supra), unless otherwise indicated. The CFU-assay allows determination of the minimal bactericidal concentration (MBC, e.g., MBC90 and MBC100; i.e. the concentration of compound required to achieve a specified reduction in bacterial cell number (microbial death or killing)).
Various peptides corresponding to repeat domains of hornerin (HR 1-11: HRNR 2606-2628; HR 1-17: HRNR 2656-2684 and HR 1-18: HRNR 2656-2677) were tested for P. aeruginosa ATCC 10145-cidal activity in 10 mM Na-phosphate buffer pH 5.5, containing 0.25% glucose by counting the numbers of colonies of surviving bacteria at serial, twofold dilutions from 300 μg/ml down to 19 ng/ml of each peptide (CFU-assay; Steinberg and Lehrer, 1997, Methods Mol. Biol. 78, 169-186).
Staphylococcus aureus is a major skin pathogen, which causes skin infections, in particular in atopic dermatitis. The sensitivity of S. aureus ATCC 6538 towards several CIDAMPs was assessed using the CFU-assay as above (see Example 1). HR 1-18, which lacks S. aureus.-bactericidal activity, is converted in a S. aureus-cidal peptide, when all His are replaced by Arg (HR 1-18 4H-4R; see Table 13 and FIG. 9). […] HR 1-18 4H-4R is rich in Ser and Arg and contains a single Leu residue. When this single Leu was replaced by Gly in S. aureus-cidal HR 1-18 4H-4R (forming HR 1-18 4H-4R/L-G), S. aureus-cidal activity was abolished at both pH 7.0 and pH 5.5 (see Table 13 and FIG. 9).

Hemolysis assay = format: cell-based; settings: for HC50 at 1 h: human, washed erythrocytes from EDTA-blood, pH 7.4
Method: For the hemolysis assays EDTA-blood was centrifuged at 800×g for 10 min, and the plasma and buffy coat were removed. The erythrocytes were washed three times and resuspended in 5% PBS, pH 7.4. The cells were then incubated with end-over-end rotation for 1 h at 37° C. in the presence of different concentrations of peptides (0, 3, 10, 30, 60 μm). 0.1% Triton X-100 (Sigma-Aldrich) served as positive control. The samples were then centrifuged at 800×g for 10 min.
The absorbance of hemoglobin release was measured at 540 nm and is expressed as % of Triton X-100-induced hemolysis. These values of triplicates were plotted with Graph Pad Prism 4 as a dose response curve and the CC50 was determined.

[2] = tested on: Candida albicans ATCC 24433; experiment: CFU-assay, Candida albicans-cidal activity; format: cell-based
Method: as §1, with “killing)). […]” for “killing)).”
HR 1-17 affects C. albicans ATCC 24433 with highest activity at pH 5.5 in the absence of TSB in the medium (see Tables 12, 24). […] Furthermore, the substitution of any of the Arg residues by Gly leads to a dramatic reduction or loss of candidacidal activity (see Table 24).

P. aeruginosa ATCC 10145 = experiment: CFU-assay, P. aeruginosa-cidal activity; format: cell-based, Pseudomonas aeruginosa

GRHGSGLGHSSSHGQHGSGSGR [HR 1-18]
CC50 [1]: > 32 µg/mL and > 15.2 µM | CC50/MBC90 (S.aureus) (S. aureus ATCC 6538; pH 5.5): No activity | HC50 (Hemolysis assay): > 300 µg/mL | HC50 at 1 h (Hemolysis assay): > 143 µM

GRHGSGLGHSSSHGQHGSGSGRSSSGGPY (Modified peptide derived from human hornerin (HR 1-17 R2681G))
MBC90 ([2]; pH 5.5, 1% TSB): 300 µg/mL | MBC100 ([2]; pH 5.5, 1% TSB): >300 µg/mL | MBC90 (P. aeruginosa ATCC 10145; pH 5.0, 0.25% glucose): 0.0375 µg/mL | MBC100 (P. aeruginosa ATCC 10145; pH 5.0, 0.25% glucose): 0.15 to 0.3 µg/mL

GRRGGRGGRGRGR [GR13]
CC50 [1]: > 23.6 µM | HC50 at 1 h (Hemolysis assay): > 220 µM

GRRGSGLGRSSSRGGRGSGSGR [HR 1-18 4H-4R]
CC50 [1]: > 15.2 µM | MBC90 (S. aureus ATCC 6538; pH 5.5, 0.25% glucose): 150 µg/mL | MBC100 (S. aureus ATCC 6538; pH 5.5, 0.25% glucose): >300 µg/mL | S. aureus MBC90 (S. aureus ATCC 6538; pH 7.0): 4.46 µM | S. aureus MBC100 (S. aureus ATCC 6538; pH 7.0): >143 µM | MBC90 (S. aureus ATCC 6538; pH 7.0, 0.25% glucose): 9.35 µg/mL and 9.375 µg/mL | MBC100 (S. aureus ATCC 6538; pH 7.0, 0.25% glucose): >300 µg/mL | max.killing (S. aureus ATCC 6538; pH 7.0, 0.25% glucose): max.killing: 98.8% | HC50 at 1 h (Hemolysis assay): > 150 µM | MBC90 (P. aeruginosa ATCC 10145; pH 5.0, 0.25% glucose): 0.038 µg/mL | MBC100 (P. aeruginosa ATCC 10145; pH 5.0, 0.25% glucose): 0.15 µg/mL | P. aeruginosa MBC90 (P. aeruginosa ATCC 10145; pH 5.5): 0.018 µM | P. aeruginosa MBC100 (P. aeruginosa ATCC 10145; pH 5.5): 0.142 µM | MBC90 (P. aeruginosa ATCC 10145; pH 6.0, 0.25% glucose): 2.35 µg/mL | MBC100 (P. aeruginosa ATCC 10145; pH 6.0, 0.25% glucose): 4.7 µg/mL | MBC90 (P. aeruginosa ATCC 10145; pH 6.5, 0.25% glucose): 2.35 µg/mL | MBC100 (P. aeruginosa ATCC 10145; pH 6.5, 0.25% glucose): 4.7 µg/mL | MBC90 (P. aeruginosa ATCC 10145; pH 7.0, 0.25% glucose): 2.38 µg/mL and 2.35 µg/mL | MBC100 (P. aeruginosa ATCC 10145; pH 7.0, 0.25% glucose): 9.38 µg/mL

GRRGSGLGRSSSRGQRGSGSGR [HR 1-18 HR]
CC50 [1]: > 32 µg/mL | HC50 (Hemolysis assay): > 300 µg/mL

HAHSGHGQSTQRGSRTAGR [FLG-22082-2100]
CC50 [1]: > 12.9 µM | HC50 at 1 h (Hemolysis assay): > 121 µM

HAHSGHGQSTQRGSRTAGRRGSGH (Peptide derived from human filaggrin-2 (FLG-2 2082-2105)) [FLG-22082-2105]
reduction of candidacidal activity at pH 7.2 versus pH 5.5 (fold) ([2]; pH 7.2 vs pH 5.5): ~50 fold | MBC90 (P. aeruginosa ATCC 10145; pH 5.5, 0.25% glucose): <0.075 µg/mL | MBC100 (P. aeruginosa ATCC 10145; pH 5.5, 0.25% glucose): 0.038 µg/mL

NHHRRHHRCR [LCE3D55-64]
CC50 [1]: > 32 µg/mL

SHHRHFRSHQCR [LCE3C55-66]
CC50 [1]: > 32 µg/mL

SHHRHFRSHQCRR [LCE3C55-67]
CC50 [1]: > 32 µg/mL | HC50 (Hemolysis assay): > 300 µg/mL

SHHRPRLFHRHRH [LCE2A70-82]
CC50 [1]: > 32 µg/mL

SHHRPRLFHRRRH [LCE2B74-86]
CC50 [1]: > 32 µg/mL | HC50 (Hemolysis assay): > 300 µg/mL

SHHRRRRSHCH [LCE1B78-88]
CC50 [1]: > 32 µg/mL
